What was measured:
[1] = target: T1, HMW fraction of Aβ oligomers (Homo sapiens, UniProt P05067); test: Concentration-dependent dot blot with SEC-separated HMW Aβ oligomer fraction; type: binding; settings: 10 µg ligand spotted, BAM10 1∶500
T1 construct: a depsipeptide derivative of Aβ(1–42) was utilized; made in house; host or cells: chemical peptide synthesis (no expression host)
Protocol: ITC measurement for 7 indicated fractional stoichiometry for the low nM binding, which pointed to that the high affinity interaction involves only a fraction of the oligomeric Aβ sample. To localize the strongly binding fraction in the mixture, size exclusion chromatographic (SEC) separation was carried out and the resulting Aβ oligomer fractions were tested with 7 in concentration-dependent dot blot experiments. Two dominant peaks were found in the SEC chromatogram corresponding to the high molecular weight (HMW) and low molecular weight (LMW) components (Figure 7). […] In control experiments, specific and/or preferential binding of Aβ by the membrane itself were ruled out. These findings were in line with the ITC and ELISA results. It could be concluded that 7 preferentially bound to the LMW fraction at low nM concentration and also interacted with the HMW fraction at sub-µM level.
Figure 7 Selective binding to the LMW Aβ oligomers in the nM range. Size exclusion chromatographic separation of the HMW and LMW fractions of the Aβ oligomeric sample (top panel). Concentration-dependent dot blot experiments performed with the HMW (A) and the LMW fractions (B). The ligand loadings were 10 µg aliquots of 7, and the sequence specific antibody BAM10 (1∶500) was utilized. Lanes within the panels are parallel experiments. […]

Aβ oligomers [2] = target: T2, Aβ oligomers (Homo sapiens, UniProt P05067); test: Precipitation study at 1 µM Aβ oligomer, supernatant Aβ by ELISA; settings: 1 µM Aβ oligomer, 0.2, 0.5 and 1.0 equivalents of ligand, 15000× g, 3 h
T2 construct: a depsipeptide derivative of Aβ(1–42) was utilized; made in house; host or cells: chemical peptide synthesis (no expression host)
T2 sequence (P05067 672-713 limits assumed): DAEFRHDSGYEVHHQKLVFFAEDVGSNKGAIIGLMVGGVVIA
Protocol: The extent of precipitation was also tested at an Aβ oligomer concentration of 1 µM. The Aβ oligomer sample was mixed with 0, 0.2, 0.5 and 1.0 equivalents of 7, centrifuged at 15000× g for 3 h and the supernatant was tested for residual Aβ concentration by using a standard ELISA (Figure 11).
Aβ concentrations determined by ELISA in supernatants obtained from samples containing 1 µM Aβ oligomer mixed with 0, 0.2, 0.5 and 1.0 equivalents of 7 and centrifuged at 15000×g (room temperature, 3 h).
1 μM solution of the Aβ oligomer sample was prepared. This solution was divided to 4×15 ml fractions and 7 was added to three samples in 1, 0.5 or 0.2 μM final concentration, respectively. All the four samples were divided into […] (2×5 ml). One fraction from each sample was centrifuged at 15000×g at RT for 3 hours in a Roth MIKRO 200 Microcentrifuge (Carl-Roth GmbH Karlsruhe, Germany) centrifuge. […]
Different amounts of Aβ (0.0001, 0.0003, 0.001, 0.003, 0.01, 0.03, 0.1, 0.3 µg pro well) were coated in the wells (6 parallels for each concentration) of a 96 well plate. […] Without using a stopping reagent, the absorbance at 370 nm was constantly monitored using a FLUOstar OPTIMA Multidetection Microplate Reader (BMG LABTECH, Offenburg, Germany). Data values were read at the saturation point of the signal curves. The supernatants were analysed according to the concentration calibration.

Aβ oligomers [3] = target: T2, Aβ oligomers; test: Electronic circular dichroism of Aβ oligomer with ligand; settings: 0.25 equivalents ligand with 36 μM Aβ
Text: The data on 7 were in agreement with its largely helical structure, also found via NMR. […] This was in accord with the NMR results obtained for the recognition segment 1. The secondary structure was probed also with ThT binding experiments (Figure 9B). Pure Aβ oligomers bound ThT at a certain level. This was in accord with the staining with antibody OC; both are capable of recognizing the fibrillar (or protofibrillar) oligomers. […] The latter process is similar to affinity precipitation.
(A) Observed ellipticities in ECD for 36 μM Aβ oligomer (thick black), 9 μM 7 (thin black), and 36 μM Aβ +9 μM 7 (thick dashed). The hypothetical sum of the ECD curves of the pure samples (thin dashed). (B) ThT binding experiment carried out on 36 µM oligomeric Aβ (white bars) and on 36 µM oligomeric Aβ +7 1∶1 mixtures. The relative fluorescence values were monitored up to 24 h.
CD spectra were measured on a Jasco J815 dichrograph in a 1.00 cm cell using PBS (pH = 7.4) as solvent. Three spectra were accumulated for each sample. The baseline spectrum recorded with only the solvent and it was subtracted from the raw data.

T1 sequence (P05067 672-713 limits assumed): as above

## N=C(N)NCCC[C@@H](CC(=O)N[C@H]1CCCC[C@@H]1C(=O)N[C@H]1CCCC[C@@H]1C(=O)N[C@@H](CC(=O)O)CC(=O)N[C@H]1CCCC[C@@H]1C(=O)NCC(=O)NCC(=O)N[C@@H](CSC1CC(=O)N(CCC(=O)NCCNC(=O)CCN(CCC(=O)NCCNC(=O)CCN2C(=O)CC(SC[C@H](NC(=O)CNC(=O)CNC(=O)[C@H]3CCCC[C@@H]3NC(=O)C[C@H](CC(=O)O)NC(=O)[C@H]3CCCC[C@@H]3NC(=O)[C@H]3CCCC[C@@H]3NC(=O)C[C@H](CCCNC(=N)N)NC(=O)[C@H]3CCCC[C@@H]3N)C(N)=O)C2=O)CCN(CCC(=O)NCCNC(=O)CCN2C(=O)CC(SC[C@H](NC(=O)CNC(=O)CNC(=O)[C@H]3CCCC[C@@H]3NC(=O)C[C@H](CC(=O)O)NC(=O)[C@H]3CCCC[C@@H]3NC(=O)[C@H]3CCCC[C@@H]3NC(=O)C[C@H](CCCNC(=N)N)NC(=O)[C@H]3CCCC[C@@H]3N)C(N)=O)C2=O)CCC(=O)NCCNC(=O)CCN2C(=O)CC(SC[C@H](NC(=O)CNC(=O)CNC(=O)[C@H]3CCCC[C@@H]3NC(=O)C[C@H](CC(=O)O)NC(=O)[C@H]3CCCC[C@@H]3NC(=O)[C@H]3CCCC[C@@H]3NC(=O)C[C@H](CCCNC(=N)N)NC(=O)[C@H]3CCCC[C@@H]3N)C(N)=O)C2=O)C1=O)C(N)=O)NC(=O)[C@H]1CCCC[C@@H]1N (stereo partly drawn) [Compound 7]
[1]
  Dot blot binding of HMW Aβ oligomer fraction: stained with just below micromolar affinity
Aβ oligomers [2]
  Loss of soluble Aβ after centrifugation (supernatant ELISA): no significant loss of soluble material
Aβ oligomers [3]
  ECD: effect on β-sheet content of Aβ: did not lead to an immediate increase in the β-sheet content

— paper PMC3408453, “A Foldamer-Dendrimer Conjugate Neutralizes Synaptotoxic β-Amyloid Oligomers” (PLoS ONE, 2012)
